The values that follow come from patent publication US20070122437A1, “Novel insecticide composition and use thereof particularly for impregnating mosquito nets, fly screens and the like” (priority 2004, published 2007).

What all share (format): in vivo
Experiment [1] relates to Aedes aegypti females, a strain resistant to pyrethroids (homozygous for the kdr gene). Nature of the experiment: WHO tube test on impregnated paper (KD effect and 24 h mortality), strain resistant to pyrethroids. The text has this:
Determination of the LC100 usually takes place according to the standard tube test protocol defined by the World Health Organization (WHO) (6). Briefly, the tube test is composed of an observation tube and an exposure tube (the two tubes are removable) separated by a slide unit equipped with a partition making it possible to obstruct or re-establish the passage between the two tubes. The other end of each tube is sealed by a ventilation plug equipped with a mesh screen. Each tube is lined, for the purposes of the tests, with Whatman paper (standard qualitative filter paper ref 1002 917 or else Whatman N°1) held on the edges by two metal rings. The exposure tube receives paper impregnated with insecticide (impregnated surface on the inside) while the observation tube receives non-impregnated (neutral) paper. In order to impregnate the papers in a homogeneous fashion and to the saturation limit, 2 ml of solution constituted by 0.66 ml of silicone and 1.34 ml of acetone solution are used. For an impregnation at X mg/m^2, the quantity of active ingredient to be deposited on the paper (12 cm×15 cm i.e. 0.018 m^2) is 0.018.X mg of active ingredient (quantity to be adjusted as a function of the degree of purity of the technical product). This quantity of active ingredient is then diluted in 1.34 ml of acetone solution to which 0.66 ml of silicone is then added. The paper dries at ambient temperature, in the dark for 12 hours before the start of the test. […]
The tarsal contact tests were implemented using filter paper (standard qualitative filter paper ref 1002 917 or else Whatman N° 1) impregnated with technical quality products according to the recommendations of the World Health Organization (WHO, 6). […] The mortality and the KD effect resulting from the tarsal contacts with treated filter paper were measured using the adult mosquito test tubes of the WHO. […] For the purpose of comparison with pyrethroids, which are rapid action insecticides, the number of mosquitoes knocked down at the bottom of the tubes was counted at regular intervals of 10 min. […]

The subject of experiment [2] is Aedes aegypti females, strain sensitive to pyrethroids. The experiment is described as follows: WHO tube test on impregnated paper (KD effect and 24 h mortality), strain sensitive to pyrethroids. The text has this: Determination of the LC100 usually takes place according to the standard tube test protocol defined by the World Health Organization (WHO) (6). Briefly, the tube test is composed of an observation tube and an exposure tube (the two tubes are removable) separated by a slide unit equipped with a partition making it possible to obstruct or re-establish the passage between the two tubes. The other end of each tube is sealed by a ventilation plug equipped with a mesh screen. Each tube is lined, for the purposes of the tests, with Whatman paper (standard qualitative filter paper ref 1002 917 or else Whatman N°1) held on the edges by two metal rings. The exposure tube receives paper impregnated with insecticide (impregnated surface on the inside) while the observation tube receives non-impregnated (neutral) paper. In order to impregnate the papers in a homogeneous fashion and to the saturation limit, 2 ml of solution constituted by 0.66 ml of silicone and 1.34 ml of acetone solution are used. For an impregnation at X mg/m^2, the quantity of active ingredient to be deposited on the paper (12 cm×15 cm i.e. 0.018 m^2) is 0.018.X mg of active ingredient (quantity to be adjusted as a function of the degree of purity of the technical product). This quantity of active ingredient is then diluted in 1.34 ml of acetone solution to which 0.66 ml of silicone is then added. The paper dries at ambient temperature, in the dark for 12 hours before the start of the test. The concentrations are expressed in % of active ingredient relative to the volume of silicone on the paper (as the acetone is volatile).
In order to evaluate the mortality and the KD effect, 25 Ae. aegypti females which are not gorged and are from 2 to 5 days old are introduced into the exposure tube and are left in contact for one hour at 27° C.±2 and 80%±10 humidity. The number of mosquitoes which have fallen to the bottom of the tube is noted every 10 minutes. After 60 minutes, the mosquitoes are transferred into the observation tube, with sugared juice and placed in an incubator at 27° C.±2 and 80% ±10 humidity. The mortality is noted at 24 hours. The time at which 50% of the females are knocked-down (KDT50) as well as its confidence interval are determined using a log-probit analysis (7). Four tubes are tested per solution and each test is repeated three times (triple test method).
The tarsal contact tests were implemented using filter paper (standard qualitative filter paper ref 1002 917 or else Whatman N° 1) impregnated with technical quality products according to the recommendations of the World Health Organization (WHO, 6). The filter papers were treated using solutions of insecticide and/or insect repellent diluted in acetone with silicone oil as support. The impregnation of the paper was carried out with 2 ml of the solutions to be tested, then the paper was dried for 12 h. The mortality and the KD effect resulting from the tarsal contacts with treated filter paper were measured using the adult mosquito test tubes of the WHO. The concentrations were expressed in weight of active ingredient relative to the surface of treated filter paper surface. Batches of 25 Ae. aegypti females which have not fed on blood, from 2 to 5 days old, were introduced into holding tubes and kept for 1 h (adaptation time) at 27±2° C. and 80±10% humidity. The mosquitoes were then transferred into the exposure tube and placed under dimmed light for 1 h. For the purpose of comparison with pyrethroids, which are rapid action insecticides, the number of mosquitoes knocked down at the bottom of the tubes was counted at regular intervals of 10 min. The time at which 50% of the mosquitoes are knocked down (KDT50) and its confidence interval at 95% were then determined using the log-probit method (7). The mortality was recorded after 24 hours of exposure. Each concentration was tested four times and each test was repeated three times with different groups of insects in order to consider inter-batch variability. […]

The test system is the same in experiment [3]. Nature of the experiment: Irritability test (time for first take-off in cone on impregnated paper), strain sensitive to pyrethroids. The text has this:
(§1) In order to evaluate the irritant effect or irritability, an Ae. aegypti female which is not gorged and is from 2 to 5 days old is introduced into a polyethylene cone the bottom of which is an impregnated paper. After an adaptation time of 60 seconds, the time for first take-off is noted and recorded as time for First Take-off (or FT). After 256 seconds, if the mosquito has not taken off, the test is stopped. For each test, the flying activity of 50 females is noted, and each test is repeated three times. The females are sorted into classes according to their time for first take-off and the cumulative first take-off frequencies are used in order to calculate the time at which 50% of the females have taken off (FT50). All the tests take place under controlled conditions, at 27° C.±2 and 80% ±10 humidity.
(§2) The irritability tests were carried out (a female in a cone in contact with the impregnated surface, reading of the time for first take-off after the Ist minute has passed, 50 females per test) according to the following protocol.
Ae. aegypti females which have not fed on blood, from 2 to 5 days old, were introduced individually into plastic cones applied to treated filter papers. After an adaptation time of exactly 60 seconds, the time which has passed between the first landing and the next take-off was defined as being <<the first take-off time>> (FT). The observation was not extended for the rare mosquitoes which had not taken off after 256 seconds. For each test, 50 mosquitoes were tested individually. A simple computer program using the internal clock of a laptop computer was used in order to carry out this test and in order to analyze the results grouping the mosquitoes into classes for time of first take-off. The time at which 50% of the mosquitoes have left the treated surface (median first take-off time, FT50) and its confidence interval at 95% were then determined using the log-probit method.

In experiment [4] the test system is Aedes aegypti females, a strain resistant to pyrethroids (homozygous for the kdr gene). Nature of the experiment: Irritability test (time for first take-off in cone on impregnated paper), strain resistant to pyrethroids. The conditions noted are these: 5.1 mg/m^2.
From the text: as §1, with “humidity. […]” for “humidity.”
as §2
Ae. aegypti females which have not fed on blood, from 2 to 5 days old, were introduced individually into plastic cones applied to treated filter papers. […] The time at which 50% of the mosquitoes have left the treated surface (median first take-off time, FT50) and its confidence interval at 95% were then determined using the log-probit method. […]

Setting [5] is: sensitive strain, impregnated paper.

One may read the mortality as the percentage killed. Read a high mortality as a strong lethal effect.

Take `CCN(CC)C(=O)c1cccc(C)c1` [DEET, N,N-diethyl-meta-toluamide]: the mortality at 364 mg/m2 in experiment [1] (364 mg/m^2, 1 h contact, read after 24 h, resistant strain) turned out to be 0%; in experiment [2] (Aedes aegypti, 364 mg/m^2, 1 h contact, read after 24 h, sensitive strain), 0%. In addition, the “insecticide effect (in words)” value in experiment [2] (DEET alone, 364 mg/m^2) is “does not itself have any insecticide effect”. Moreover, in experiment [3] (364 mg/m^2 on impregnated paper), the “Irritability FT50” value was found to be 24.2 s.
Consider `CNC(=O)Oc1ccccc1OC(C)C` [Propoxur, 2-isopropyloxyphenolmethylcarbamate], for which the mortality at 3.64 mg/m2 in experiment [1] is 34.5%. Also, the mortality at 7.28 mg/m2 in experiment [2] (Aedes aegypti) was 34%. Moreover, the “lethal concentration 30 (LC30)” value in experiment [2] (setting [5]) worked out at 7.28 mg/m^2. Also, the “Irritability FT50” value in experiment [3] (7.28 mg/m^2 on impregnated paper) was 133.9 s.
Turning to `CC1(C)[C@H](C(=O)O[C@H](C#N)c2cccc(Oc3ccccc3)c2)[C@@H]1C=C(Br)Br` [deltamethrin], the “Irritability FT50” value in experiment [4] was 34.98 s; in experiment [3] (0.728 mg/m^2 (LC30)) it was 23.9 s; in experiment [3] (5.1 mg/m^2 (LC100)) it was 16.9 s. The mortality at 5.1 mg/m2 in experiment [1] (5.1 mg/m^2, 1 h contact, read after 24 h, resistant strain) worked out at 8%; in experiment [2] (Aedes aegypti, 5.1 mg/m^2, 1 h contact, read after 24 h, sensitive strain), 100%. Also, in experiment [2] (Aedes aegypti, 0.728 mg/m^2, 1 h contact, read after 24 h, sensitive strain), the mortality at 0.728 mg/m2 was 34%. The same compound displayed an LC100 in experiment [2] (setting [5]) of 5.1 mg/m^2. In addition, the “lethal concentration 30 (LC30)” value in experiment [2] (setting [5]) stood at 0.728 mg/m^2.
